# Test results published in US12226379B2, “Highly sustainable compositions for modulation of gene expression in human skin, and methods of production thereof” (Visolis Technologies, Inc., priority 2022, dated 2025).
# Assays:
# Format in all cases: cell-based
# [1] = system: EpiSkin-LM 3-dimensional in-vitro human skin model; experiment: Gene expression test (DNA microarray, mRNA) on the EpiSkin-LM reconstructed 3D skin model
# Protocol: Gene expression tests were conducted on EpiSkin-LM™, a commercially available 3-dimensional in-vitro human skin model composed of normal human skin cells in a collagen matrix. Test samples contained either 0.5% or 1.0% of highly sustainable, high-purity MVL by weight in a phosphate-buffered saline (PBS) solution. Negative control samples contained PBS only.
# Reconstructed 3D skin epidermal models (EpiSkin-LM™) were pre-incubated with 5 mL of maintenance medium for 24 hours per manufacturer instruction. 2 mL of the test samples or negative controls were applied on the top of the epidermis. The treated models were incubated for 24 hours. After incubation, the models were rinsed with PBS, then treated again with 2 mL test samples or the negative control and incubated an additional 24 hours.
# After the second incubation, mRNA was extracted from the models by miRNeasy® Mini Kit (QIAGEN). mRNA expression level in the model was measured by a Genopal® DNA microarray chip. Modulation of gene expression level was expressed as the ratio of mRNA transcripts in the test-sample treated models to mRNA transcripts in the negative control models. Positive numbers indicated an increase in gene expression, and negative numbers indicated a decrease in gene expression relative to the negative control.
# [2] = system: normal human epidermal keratinocytes cells; experiment: Cortisol production test (conversion of cortisone to cortisol, Alpha LISA); details: FIG. 13
# Protocol: Impact of MVL on metabolism, specifically cortisol production, was conducted on keratinocytes. Generally, 11β-HSD1 (Hydroxysteroid Dehydrogenase Type 1) converts costisone to cortisol, which then induces stress response. Impact of MVL on conversion of cortisone to cortisol was evaluated. Cortisol production tests were conducted on normal human epidermal keratinocytes cells. […] Negative control samples contained PBS only. Cortisol production was subsequently measured via the Alpha LISA system.
# [3] = system: normal human epidermal keratinocytes (NHEKs) cells; experiment: Hyaluronic acid level in medium (ELISA, normalized to protein level); details: FIG. 15; for increase in hyaluronic acid levels: 48 hours, p<0.05
# Protocol: Impact of MVL on hyaluronic acid, was conducted on keratinocytes. Hyaluronic acid is a crucial component of the skin. Impact of MVL on conversion of hyaluronic acid was evaluated. Hyaluronic acid tests were conducted on normal human epidermal keratinocytes (NHEKs) cells. Test samples contained 0-0.25% of highly sustainable, high-purity MVL by weight in a phosphate-buffered saline (PBS) solution. Negative control samples contained PBS only. Hyaluronic acid level in the medium was subsequently measured at 24 hours and 48 hours via ELISA and normalized to the protein level in the NHEK cells.
# [4] = compositions containing 0.1 to 1.0 weight percent, human epithelial cells
structure (smiles),measurement,setting,value
"C[C@@]1(O)CCOC(=O)C1 [MVL, R-mevalonolactone]","decrease in gene expression level relative to negative control (MMP1, MMP2, MMP3, MMP7, MMP9, NFATC1, IL1A, IL1B, TNFA, SELE, SELL, EDN1, EDN2, EDN3, PTGS2 (COX2), POMC)","[1]; 1.0% by weight in PBS, two 24 h treatments, genes of extracellular matrix degradation, inflammation, skin pigmentation (FIGS. 6-8)",at least 10%
same,"decrease in expression of genes related to ECM degradation, inflammation and pigmentation",[1]; [4],at least 10%
same,"increase in expression of genes related to epithelial turnover, hyaluronic acid synthesis, barrier function and anti-aging elasticity",[1]; [4],at least 10%
same,conversion of cortisone to cortisol,"[2]; 0.125-0.5% by weight, higher concentrations give larger decline in cortisol levels",potently modulates
same,reduction of cortisol production,[2]; 0.5% concentration in PBS with cortisone,over 15%
same,increase in hyaluronic acid levels,[3]; 0.13% concentration,over 5%
same,hyaluronic acid levels,"[3]; 0.13-0.25% by weight, higher concentrations give higher hyaluronic acid levels",potently modulates
same,increase in hyaluronic acid levels,[3]; 0.25% concentration,over 5%
